Like-named read-outs stand apart in the source and are kept apart here. Non-standard residues stand in square brackets, D forms with d.
What was measured:
[1] = target: T1, PhoQ (Salmonella typhimurium, UniProt P0DM80); assay: PhoPQ reporter assay (PhoN-PhoA fusion); format: cell-based, S. typhimurium strain CS 120; settings: 5 μg/mL peptide, 5 mM magnesium
T1 construct: S. typhimurium strain CS 120, which expresses a PhoP-regulated fusion between Salmonella acid phosphatase (PhoN) and E. coli alkaline phosphatase (PhoA); endogenous in cells; host or cells: S. typhimurium strain CS 120
Procedure: S. typhimurium strain CS 120, which expresses a PhoP-regulated fusion between Salmonella acid phosphatase (PhoN) and E. coli alkaline phosphatase (PhoA), was utilized for the analysis of PhoPQ activation. The activity of this fusion protein was measured in media containing varying concentrations of the peptides and/or magnesium. For growth under PhoPQ activating conditions the growth media was supplemented with 50 μM MgCl2. Growth under PhoPQ-repressive conditions was performed in the presence of 5 mM MgCl2 as were all of the assays of peptide responses.
The ability of BMAP28 and RI-BMAP28 to initiate activation of a PhoPQ-dependent reporter was examined by incubation of bacterium in the presence of sub-lethal (5 μg/mL) concentrations of indicated peptide as well as 5 mM magnesium. Values reported represent the averages of three replicates. Activation and repression of PhoPQ by low (50 μM) and high (5 mM) magnesium respectively is also reported.
S. typhimurium strain CS 120, which expresses a PhoP-regulated fusion between Salmonella acid phosphatase (PhoN) and E. coli alkaline phosphatase (PhoA) was utilized for analysis of PhoPQ activation. The activity of this fusion protein was measured in salt-free LB media containing varying concentrations of the peptides and/or magnesium. For growth under PhoPQ activating conditions the growth media was supplemented with 50 μM MgCl2. […]

[2] = test system: LPS-induced TNF-α secretion in bovine PBMCs; assay: HDP inhibition of LPS-induced TNF secretion (capture ELISA); format: cell-based; settings: 100 ng/ml LPS, various peptide concentrations
From the text: As patterns expression are not necessarily predictive of final biological responses we sought to confirm the immunomodulatory capabilities of RI-BMAP-28 through independent analysis. Specifically, the ability of the two isomers to influence secretion of the pro-inflammatory cytokine tumor necrosis factor alpha (TNF-α) following LPS stimulation was examined. Secretion of TNF-α is a well established biomarker of inflammation responses (52).
The secretion of TNF in culture supernatants was quantified with a capture ELISA. Inhibition of LPS-induced TNF secretion was evaluated by adding various concentrations of BMAP-28 (▴) or retro-inverso RI-BMAP-28 (▪) to duplicate PBMCs cultures. The data presented experiments performed in a single animal. While all three animals gave the same trend of responses, the magnitude of these responses is unique for each animal. […]
Untreated cells or cells treated with LPS for 24 h, in the presence or absence of the HDPs, were centrifuged at 1000×g for 5 min followed by 10,000×g for 10 min to obtain cell-free tissue culture supernatant samples. […] TNF-α secretion was monitored with a species-specific capture ELISA (37). […] The concentration of the cytokine was quantified by establishing a standard curve with serial dilutions of the recombinant human TNF-α (eBioscience, San Diego, Calif.) or bovine TNFα (Genetech Inc. San Francisco, Calif.).

[3] = test system: LPS-induced expression of BIRC3, CCL20, IL-8 and IL-10 in bovine monocytes; assay: HDP inhibition of LPS-induced gene expression (qRT-PCR); format: cell-based; settings: 100 ng/ml LPS; for reduction of LPS-induced CCL20 expression / reduction of LPS-induced IL-8 expression / reduction of LPS-induced IL-10 expression: 0.5 μg/mL peptide; for suppression of the induction of LPS-induced genes: 5 μg/mL peptide, 4 hours
From the text: The induction of inflammation responses by lipopolysaccharide (LPS) has clinical significance as a mechanism of sepsis and also serves as a biomarker for the ability of HDPs to mediate anti-endotoxic function. Our investigation focuses on patterns of expression of genes (BIRC3, CCL20, IL-8 and IL-10) identified through microarray analysis to show the most significant levels of differential expression in response to LPS-stimulation in monocytes, Mookherjee et al., J. Leokocyte. Biol. 80:1-12, 2006; Mookherjee et al., J. Immunol. 176: 2455-2464, 2006. […] Biol. 80:1-12, 2006; Mookherjee et al., J. Immunol. 176: 2455-2464, 2006.
The data presented represents the average of experiments performed in triplicate for a single animal. While all three animals, each tested in triplicate, gave the same trend of responses, the magnitude of these responses is unique for each animal. This is typical of the animal-to-animal variation in the magnitude of LPS-induced responses that has been observed by our group.
Monocytes were purified from isolated PBMCs by MACS® purification using CD14 microbeads (Miltenyi Biotec Inc., Auburn, Calif.). Monocytes were then plated at 5×10^6 cells/well in 6-well plates using Aim V medium (Gibco™, Invitrogen Corp., San Diego, Calif.) supplemented with 10% heat-inactivated fetal bovine serum (Gibco™) and rested for 19 hours before stimulation.
The ability of BMAP-28 and RI-BMAP-28 to modulate patterns of gene expression induced by endotoxin stimulation was determined in cultured monocytes. Cultured monocytes were stimulated with purified LPS (100 ng/ml) in the presence or absence of different concentrations of antimicrobial peptides for 4 hours. […] Biol. 80:1-12, 2006; Mookherjee et al., J. Immunol. 176: 2455-2464, 2006, and in vivo, Clapp et al., Am. J. Respir. Cri. Care Med. 150: 611-617, 1994. Cells were pelleted and stored at −81° C.
RNA was extracted from the bovine PBMCs with the RNeasy Mini Kit (Qiagen Inc., Ontario, Canada) and the RNase-free DNase (Qiagen Inc.) as per the manufacturer's protocols.
Quantitive real-time PCR (qRT-PCR) was performed using Invitrogen's SuperScript™ III Platinum® two step qRT-PCR kit with SYBR® Green (Invitrogen Corp., San Diego, Calif.) on the Bio-Rad (Hercules, Calif.) iCycler. Briefly, 250 ng total RNA, 8 μL 2×RT reaction mix, 2 μL RT enzyme, and DNase/RNase free water were added to a final volume of 20 μL. The mixture was incubated at 25° C. for 5 minutes, followed by 1 hour incubation at 50° C. and a final incubation of 15 min at 70° C. to produce the cDNA. The PCR reaction was carried out as per the manufacturer's instructions (Invitrogen Corp.) using a mix of Platinum® SYBR® Green qRT-PCR Super-Mix UDG, the template cDNA, […] of the primer mix, and DNase/RNase free water up to 15 μL total volume per well. Cycling conditions were carried out as indicated by the Invitrogen's SuperScript™ III Platinum® two-step qRT-PCR kit with SYBR® Green.

[4] = test system: Salmonella typhimurium ATCC 14028, Escherichia coli O157:H7, Serratia marcescens ATCC 274, Yersinia enterocolitica O:9 E40 (pYV40), Pseudomonas cepacia ATCC …; assay: Minimal inhibitory concentration, modified broth microdilution; format: cell-based
From the text: The present study examined the direct antimicrobial activity of BMAP-28 and RI-BMAP-28 against a series of bacterium which are of medical interest. […] This conclusion is also consistent with the maintained sequence and structure of the RI-BMAP-28. Antimicrobial activity, which is dependent upon non-chiral interactions with bacterial membranes, is anticipated to have the lowest structural requirements for maintenance of activity.
The bacterial strains used for this investigation were Salmonella typhimurium ATCC 14028, Escherichia coli O157:H7, Serratia marcescens ATCC 274, Yersinia enterocolitica O:9 E40 (pYV40), Pseudomonas cepacia ATCC 53795, and Salmonella enterititidis 27655R PT4.
The MIC of the peptides were measured using a modified broth microdilution method, Wu et al., Antimicrob. Agents Chemother. 43: 1274-1276, 1999, in LB medium, whereby the assay was performed in sterile 96-well, round-bottom polypropylene microtitre plates with an inoculum of 5×10^5 bacteria per mL. The plates were incubated at 37° C. for 12 h, solutions spotted onto LB-agar plates and the MIC was taken as the concentration at which no growth was observed.

[5] = test system: bovine erythrocytes; assay: Cytotoxicity (hemolysis) assay; format: cell-based
Procedure: To determine the cytotoxicity of BMAP-28 and RI-BMAP-28 the peptides were incubated overnight at a range of concentrations in the presence of bovine erythrocytes. Consistent with what has been reported by others, BMAP-28 began to exert a cytotoxic effect at concentrations as low as 30 μg/mL. Complete hemolysis was observed by 200 μg/mL of BMAP-28. […] As toxicity currently represents a limiting factor to the systemic administration of HDPs this finding could be of particular significance.
Hemolysis was performed by incubating a 1% (v/v) suspension of bovine erythrocytes in phosphate buffered saline (pH 7.4) with a series of peptide concentrations for 12 hours at 37° C. Samples were then centrifuged and the supernatant absorbance read at 415 nm. Total hemolysis was obtained by resuspending in cells in water rather than PBS. Results are the average from four independent experiments.
Cytotoxicity assays were performed as based upon previously established protocols, Chen et al., Chem. Biol. Drug Des. 67: 162-173, 2006. Briefly, peptide samples were added to 1% bovine erythrocytes in phosphate-buffered saline and reactions were incubated at 37° C. for 18 h in microtiter plates. Appropriate dilutions of the peptides were made fresh prior to each MHC trial in HDP dilution buffer (0.2% BSA, 0.01% acetic acid) and added following addition of the erythrocytes in the appropriate microtiter plate well position. Hemolysis was determined by withdrawing aliquots from the assays, removing unlysed erythrocytes by centrifugation (800×g) and determining which peptide concentrations cause hemoglobin release. Hemoglobin release was determined spectrophotometrically at 570 nm. A sample of 1% erythrocytes with no added peptide served as a non-lysis control. As erythrocytes were incubated in an isotonic medium, no detectable release (<1% of that released upon complete hemolysis) of hemoglobin was observed from this control.

[6] = test system: mice; settings: cited from earlier work

T1 sequence (P0DM80 whole entry, the tested form may be a part): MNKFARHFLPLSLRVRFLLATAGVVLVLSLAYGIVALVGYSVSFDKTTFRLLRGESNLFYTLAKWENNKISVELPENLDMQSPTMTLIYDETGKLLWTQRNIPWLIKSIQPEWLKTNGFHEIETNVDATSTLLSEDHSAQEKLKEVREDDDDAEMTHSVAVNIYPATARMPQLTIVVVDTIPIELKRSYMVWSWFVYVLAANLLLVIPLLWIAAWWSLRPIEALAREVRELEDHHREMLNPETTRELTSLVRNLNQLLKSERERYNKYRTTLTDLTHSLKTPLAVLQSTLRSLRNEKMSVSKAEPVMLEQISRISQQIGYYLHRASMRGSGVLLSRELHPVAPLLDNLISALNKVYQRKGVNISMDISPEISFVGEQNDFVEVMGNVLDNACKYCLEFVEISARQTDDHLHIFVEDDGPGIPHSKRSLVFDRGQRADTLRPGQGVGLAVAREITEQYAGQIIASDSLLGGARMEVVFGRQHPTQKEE

| Substance | activation of PhoPQ-dependent reporter [1] | inhibition of LPS-induced TNF-α secretion [2] | reduction of LPS-induced CCL20 expression [3] | reduction of LPS-induced IL-8 expression [3] | reduction of LPS-induced IL-10 expression [3] | suppression of the induction of LPS-induced genes [3] | potency as direct antimicrobial agent versus natural isomer ([4]; against a spectrum of bacteria) | MIC values relative to that of the natural peptide ([4]; all strains tested, LB medium, 37° C., 12 h) | cytotoxic effects over the range of peptide concentrations examined ([5]; 1% bovine erythrocytes in PBS, overnight, 37° C.) | LD50 ([6]; administered intravenously) | LD50 ([6]; mice, i.p. administration) | concentration at which a cytotoxic effect begins [5] | concentration giving complete hemolysis [5] |
| --- | --- | --- | --- | --- | --- | --- | --- | --- | --- | --- | --- | --- | --- |
| D-amino acids of NH2-GIRIIPVIIPGYKKWARLIKRGLSRLG-COOH (H-G[dI][dR][dI][dI][dP][dV][dI][dI][dP]G[dY][dK][dK][dW][dA][dR][dL][dI][dK][dR]G[dL][dS][dR][dL]G-OH; also: retro-inverso) [RI-BMAP-28, retro-inversed form of BMAP-28] | identical patterns of activation | dose-dependent inhibition | two-fold reduction | four-fold | two-fold reduction | four to five-fold suppression | 2-3 fold | half to a third | did not exhibit any cytotoxic effects | – | – | – | – |
| NH2-GLRSLGRKILRAWKKYGPIIVPIIRIG-COOH (H-GLRSLGRKILRAWKKYGPIIVPIIRIG-OH) [BMAP-28, natural host defense peptide, a 27 amino acid proteolytic product of the antibacterial peptide BMAP-28 precursor protein] | identical patterns of activation | dose-dependent inhibition | two-fold reduction | four-fold | two-fold reduction | four to five-fold suppression | – | – | – | 15 mg/kg | approximately 40 mg/kg | 30 µg/mL | ≤ 200 µg/mL |
